{"source": "paper PMC11541474", "about": "“Toward New Therapeutics for Visceral Leishmaniasis: Efficacy and Mechanism of Action of Amides Inspired by Gibbilimbol B” (ACS Omega, 2024)", "format_in_all_cases": "cell-based, Leishmania (L.) infantum", "key": {"[1]": {"system": "L. (L.) infantum promastigotes", "experiment": "intracellular Ca2+ levels, Fura-2 AM", "settings": "9 at 141.5 μM, 10 at 110.1 μM", "description": "Compounds that affect intracellular Ca^2+ balance in Leishmania may cause changes in the mechanism of transport of these ions in trypanosomatids.[26] In Leishmania spp., Ca^2+ regulation involves the endoplasmic reticulum, the mitochondria, and the acidocalcisomes;[27],[28] increases in this intracellular ion can trigger processes such as apoptosis that led to the death of the parasite.[29] The Fura-2 AM marker was used to measure intracellular Ca^2+ levels in Leishmania (L.) infantum promastigotes. Fura-2 has a high affinity for Ca^2+, which results in the formation of fluorescent intracellular complexes that are proportional to intracellular Ca^2+ levels.[30] […] (Triton X-100) at all monitored times. […] Compound 10 induced similar levels of fluorescence to those induced by compound 9 but at a slower rate, as these levels were observed after 200 min of incubation.  Figure 7 Intracellular Ca^2+ levels in L. (L.) infantum treated with (A) compound 9 (141.5 μM) or (B) compound 10 (110.1 μM). Results were obtained using the Fluo-4 AM dye (excitation and emission at 485 and 535 nm, respectively). Untreated and treated with Triton X-100 (0.5% v/v) parasites were used as negative and positive controls, respectively. Fluorescence is represented as a percentage relative to the untreated control at 0 min (100%).***p < 0.0001. Measurements of intracellular Ca^2+ levels were conducted as previously reported.[49] Briefly, promastigotes were pretreated with Fura-2 AM (Molecular Probes) in PBS, washed and treated with compounds 9 (141.5 μM) or 10 (110.1 μM). Fluorescence was measured using a microplate reader (FilterMax […]-Mode, Molecular Devices) with excitation and emission at 360 and 500 nm, respectively. Untreated and treated parasites (0.5% Triton X-100) were used as negative and positive controls, respectively."}, "[2]": {"system": "L. (L.) infantum promastigotes", "description": "Changes in the plasma membrane integrity of Leishmania spp. can lead to cell death due to pore formation, pH imbalance, and nutrient-transport failure. Initially, the fluorescent probe Sytox Green was employed to analyze the permeability of the plasma membrane. […] Untreated parasites were used as a negative control for normalization (0% permeabilization) whereas the nonionic surfactant Triton X-100 was used for as positive control (100% permeabilization).\nFigure 4 Plasma membrane permeability in L. (L.) infantum promastigotes after 4 h of treatment with compound (A) 9 (141.5 μM) or (B) 10 (110.1 μM), using the fluorescent probe Sytox Green (p < 0.0001). Negative control: untreated parasites; positive control: Triton X-100 (TX-100).\nAssays for determination of plasma membrane integrity of L. (L.) infantum were conducted as previously reported.[46] Briefly, compounds 9 (141.5 μM) and 10 (110.1 μM) were added to different wells and the resulting fluorescence was measured using a fluorimetric microplate reader (FilterMax F5Multi-Mode, Molecular Devices). Triton X-100 (0.5%, v/v) and untreated parasites were used as positive negative controls, respectively.[47]"}, "[3]": {"system": "L. (L.) infantum promastigotes", "experiment": "mitochondrial membrane electric potential, JC-1 flow cytometry", "settings": "9 at 141.5 μM, 10 at 110.1 μM, 4 h exposure", "description": "Mitochondria perform several vital functions and play an essential role in maintaining cellular balance, thus making them a potential target for new drugs against Leishmania spp. Mitochondria are composed of two interconnected membranes and play crucial roles in energy production (ATP), calcium regulation, and the induction of programmed cell death among other processes.[22],[23] Prolonged changes in mitochondrial membrane potential can lead to irreversible cellular damage.[24] The mitochondrial membrane potential of L. (L.) infantum promastigotes (Figure 6) was evaluated by flow cytometry using JC-1.[25] […] The compound carbonyl cyanide m-chlorophenyl […] (CCCP) was used to induce maximum depolarization (positive control), whereas untreated parasites served as a negative control. […] Both alterations may have contributed to the observed mitochondrial dysfunction and might explain the reduction in ROS levels after treatment that was observed. […] JC-1 dye fluorescence was measured by flow cytometry (excitation and emission at 488 and 530 nm, respectively) after incubation. […] Fluorescence is reported as the quotient of channels BL2/BL1.**: p = 0.0001. […] Fluorescence was measured with excitation and emission filters at 488 and 530 nm (BL-1)/574 nm (BL-2), respectively. […]"}}, "data": [{"smiles": "CCCCC(CC)CNC(=O)c1ccc(Cl)cc1", "note": "(centres unmarked) [Compound 9, N-(2-Ethylhexyl)-4-chlorobenzamide]", "values": [{"measurement": "incubation time at which Ca^2+ levels approached those of the positive control (Triton X-100)", "setting": "[1]", "result": "≤ 20", "unit": "min"}, {"measurement": "intracellular Ca^2+ concentration compared with untreated parasites", "setting": "[1]", "result": "increased the intracellular Ca^2+ concentration"}, {"measurement": "permeabilization of the plasma membrane (Sytox Green)", "setting": "[2]", "result": "did not induce permeabilization of the membrane"}, {"measurement": "mitochondrial membrane potential (JC-1) compared with untreated promastigotes", "setting": "[3]", "result": "significant depolarization of the mitochondrial membrane"}]}, {"smiles": "CCCCC(CC)CNC(=O)c1ccc([N+](=O)[O-])cc1", "note": "(centres unmarked) [Compound 10, N-(2-Ethylhexyl)-4-nitrobenzamide]", "values": [{"measurement": "incubation time at which Ca^2+ levels approached those of the positive control (Triton X-100)", "setting": "[1]", "result": 200, "unit": "min"}, {"measurement": "intracellular Ca^2+ concentration compared with untreated parasites", "setting": "[1]", "result": "increased the intracellular Ca^2+ concentration"}, {"measurement": "permeabilization of the plasma membrane (Sytox Green)", "setting": "[2]", "result": "did not induce permeabilization of the membrane"}, {"measurement": "mitochondrial membrane potential (JC-1) compared with untreated promastigotes", "setting": "[3]", "result": "not statistically significant"}]}]}
